Source: patent US11352352B2, “Aminopyrimidine compound, preparation method therefor and use thereof” (BEIJING ADAMADLE BIOTECHNOLOGY LIMITED LIABILITY COMPANY, priority 2017, dated 2022)

Tests used:
Test in all cases: Cell proliferation inhibition experiment, CellTiter-Glo (CTG) method
Format in all cases: cell-based
NCI-H1975 = settings: for IC50: Homo sapiens, NCI-H1975, 72 h, NCI-H1975 cells, CTG, 3 days; for A-431/NCI-H1975 Selectivity: ratio of A-431 IC50 to NCI-H1975 IC50
Protocol: (§1) Cell Proliferation Inhibition Experiment
(§2) Compounds were tested in the selected cell lines, and solvent is set as control, nine concentrations were detected with three parallel wells for each concentration.
(§3) 2. Reagents and Materials • 1) fetal bovine serum FBS (GIBCO, Cat #10099-141) • 2) CellTiter-Glo® Luminescent Cell Viability Assay (Promega, Cat #G7572) • 3) 96-well plate with flat clear bottom, black wall plates (Corning®, Cat #3340)
(§4) The first day: Incubation and plant of cells • 1) Cells in logarithmic growth phase were harvested and counted by cell counter. Cell viability was detected by trypan blue exclusion assay to ensure that the viability of each cell line was above 90%. • 2) Cell concentration was adjusted by diluting complete culture medium, and 90 μL cell suspension was added to a 96-well plate (T0 plate and drug plate to be tested) to make the cell density reach the specified concentration. • 3) Cells in 96-well plate were incubated overnight at condition of 37° C., 5% CO2 and 95% humidity.
(§5) The second day: Reading T0 plate • 1) 10 μL culture medium was added to T0 plate. • 2) CTG reagent was melt, while the cell plate was balanced to room temperature for 30 minutes. • 3) The same volume of CTG solution was added to each well. • 4) The cell plate was vibrated for 2 minutes on an orbital shaker to lyze the cells. • 5) The cell plate was placed at room temperature for 10 minutes to stabilize the cold light signal. • 6) The cold light value was read with EnVision.
(§6) Drug Addition • 1) Drug dilution. The compounds to be tested were dissolved and packaged, then a gradient elution was performed to obtain a solution diluted 10 times. • 2) Drug addition. […] drug solution was added into each well of the 96-well plate, which was inoculated cells, three parallel wells were set for each cell concentration.
(§7) The third day: reading plate at the terminal • 1) CTG reagent was melt, while the cell plate was balanced to room temperature for 30 minutes. • 2) The same volume of CTG solution was added to each well. • 3) The cell plate was vibrated for 2 minutes on an orbital shaker to lyze the cells. • 4) The cell plate was placed at room temperature for 10 minutes to stabilize the cold light signal. • 5) The cold light value was read with EnVision
(§8) Data were analyzed using GraphPad Prism 5.0 software, and non-linear S curve regression was used for fitting the data to give a dose-effect curve, IC50 value was calculated accordingly. Cell Survival Rate (%)=(Lumdrugs−Lumcontrol)/(Lumcell−Lumcontrol)×100%.

PC-9 = settings: Homo sapiens, PC-9, 72 h, PC-9 cells, 3 days
Protocol: as §1, §2, §3, §4, §5, §6, §7, §8

A-431 = settings: Homo sapiens, A-431, 72 h, A-431 cells, 3 days
Protocol: as §1, §2, §3, §4, §5
Drug Addition • 1) Drug dilution. The compounds to be tested were dissolved and packaged, then a gradient elution was performed to obtain a solution diluted 10 times. • 2) Drug addition. […] drug solution was added into each well of the 96-well plate, which was inoculated cells, three parallel wells were set for each cell concentration. The highest concentration of the compounds to be tested on A-431 was 30 μM, nine concentrations was set with 3 times dilution; while the highest concentration on NCI-H1975 and PC-9 was 1.111 μM, 9 concentrations was set with 3 times dilution. • 3) Culture. Cells in 96-well plates in which drugs have been added were cultured at condition of 37° C., 5% CO2 and 95% humidity for 3 days, and then CTG assay was performed respectively.
as §7, §8

SMILES	IC50 (NCI-H1975) [nM]	A-431/NCI-H1975 Selectivity (NCI-H1975)	IC50 (PC-9) [nM]	IC50 (A-431) [nM]
C=CC(=O)Nc1cc(Nc2cc(-c3ccc4ncsc4c3)ncn2)c(OC)cc1N(C)C1CCN(C)CC1 [compound 81]	28.7	48.1	26.4	1380
C=CC(=O)Nc1cc(Nc2cc(-c3ccc4ncsc4c3)ncn2)c(OC)cc1N1C[C@@H](C)N(C)[C@@H](C)C1 [compound 82]	24	45.6	29.6	1090
C=CC(=O)Nc1cc(Nc2cc(-c3ccc4c(cnn4C(C)C)c3)ncn2)c(OC)cc1N1C[C@@H](C)N(C)[C@@H](C)C1 [compound 83]	67.2	22.6	77.9	1520
C=CC(=O)Nc1cc(Nc2cc(-c3ccc4c(cnn4C(C)C)c3)ncn2)c(OC)cc1N1CCC(N2CCN(C)CC2)CC1 [compound 84]	34.4	28.7	27.5	988
C=CC(=O)Nc1cc(Nc2cc(-c3ccc4c(cnn4C(C)C)c3)ncn2)c(OC)cc1N(C)C1CCN(C)CC1 [compound 85]	72.3	25.4	56.7	1840
C=CC(=O)Nc1cc(Nc2cc(-c3ccc4c(cnn4C(C)C)c3)ncn2)c(OC)cc1N1CCC(C2CCN(C)CC2)CC1 [compound 86]	91.6	19.4	76.4	1780
C=CC(=O)Nc1cc(Nc2cc(-c3ccc4c(cnn4C(C)C)c3)ncn2)c(OC)cc1N(C)C1CCN(C2CCN(C)CC2)CC1 [compound 87]	114	17.2	77.6	1960
C=CC(=O)Nc1cc(Nc2cc(-c3ccc4c(cnn4C)c3)ncn2)c(OC)cc1N(C)CCN(C)CC [compound 88]	6.1	161.8	7.2	987
C=CC(=O)Nc1cc(Nc2cc(-c3ccc4c(cnn4CC)c3)ncn2)c(OCC)cc1N(C)CCN(C)C [compound 89]	19.9	48.0	14.8	954
C=CC(=O)Nc1cc(Nc2cc(-c3ccc4c(cnn4C)c3)ncn2)c(OCC)cc1N1C[C@@H](C)N(C)[C@@H](C)C1 [compound 90]	26.5	66.2	15.5	1750
C=CC(=O)Nc1cc(Nc2cc(-c3ccc4c(cnn4CC)c3)ncn2)c(OCC)cc1N1C[C@@H](C)N(C)[C@@H](C)C1 [compound 91]	62.2	21.3	47.2	1320
C=CC(=O)Nc1cc(Nc2cc(-c3ccc4c(cnn4CC)c3)ncn2)c(OC(F)F)cc1N(C)CCN(C)C [compound 92]	9.3	82.1	13.1	764
C=CC(=O)Nc1cc(Nc2cc(-c3ccc4c(cnn4C)c3)ncn2)c(OCC)cc1N(C)CCN(CC)CC [compound 93]	20.5	41.7	18.5	854
C=CC(=O)Nc1cc(Nc2cc(-c3ccc4c(cnn4CC)c3)ncn2)c(OCC)cc1N(C)CCN(CC)CC [compound 94]	47.8	42.6	55.7	2040
C=CC(=O)Nc1cc(Nc2cc(-c3ccc4c(cnn4C)c3)ncn2)c(OC(F)F)cc1N(C)CCN(CC)CC [compound 95]	6.7	148.9	12.2	997
C=CC(=O)Nc1cc(Nc2cc(-c3ccc4c(cnn4CC)c3)ncn2)c(OC(F)F)cc1N(C)CCN(CC)CC [compound 96]	13.7	69	10.8	945
C=CC(=O)Nc1cc(Nc2cc(-c3ccc4c(cnn4C)c3)ncn2)c(OC(F)F)cc1N1C[C@@H](C)N(C)[C@@H](C)C1 [compound 97]	33.1	24.1	22.6	798

SMILES	IC50 (NCI-H1975) [nM]	A-431/NCI-H1975 Selectivity (NCI-H1975)	IC50 (PC-9) [nM]	IC50 (A-431) [nM]
C=CC(=O)Nc1cc(Nc2cc(-c3ccc4c(cnn4CC)c3)ncn2)c(OC(F)F)cc1N1C[C@@H](C)N(C)[C@@H](C)C1 [compound 98]	83.5	12.7	31.7	1060
C=CC(=O)Nc1cc(Nc2cc(-c3ccc4c(cnn4C)c3)ncn2)c(OC)cc1N1CCC(N2CCN(C(C)C)CC2)CC1 [compound 101]	7.3		19.5	633
C=CC(=O)Nc1cc(Nc2cc(-c3ccc4c(cnn4C)c3)ncn2)c(OC)cc1N1CCOCC1 [compound 102]	14.1	70.0	12.5	986
C=CC(=O)Nc1cc(Nc2cc(-c3ccc4c(cnn4C)c3)ncn2)c(OC)cc1N1CCN(CC2CC2)CC1 [compound 105]	14.6	53.3	17.9	778
C=CC(=O)Nc1cc(Nc2cc(-c3ccc4c(cnn4C)c3)ncn2)c(OC)cc1N1CCC2(CC1)COC2 [compound 107]	16.5	78.2	17.8	1290
C=CC(=O)Nc1cc(Nc2nccc(-c3ccc4c(cnn4C)c3)n2)c(OC)cc1N(C)C1CCN(C)C1 (stereo not shown) [compound 109]	32.3	44.4	35	1430
C=CC(=O)Nc1cc(Nc2cc(-c3ccc4c(cnn4C)c3)ncn2)c(OC)cc1N(C)[C@@H]1CCN(C)C1 [compound 110]	8		6.9	599
C=CC(=O)Nc1cc(Nc2cc(-c3ccc4c(cnn4C)c3)ncn2)c(OC(F)F)cc1N(C)C1CCN(C)C1 (stereo not shown) [compound 111]	18	52.7	16.8	948
C=CC(=O)Nc1cc(Nc2cc(-c3ccc4c(cnn4CC)c3)ncn2)c(OC)cc1N(C)C1CCN(C)C1 (stereo not shown) [compound 112]	9	72.7	9.7	654
C=CC(=O)Nc1cc(Nc2nccc(-c3ccc4c(cnn4C)c3)n2)c(OC)cc1N1CCN(CCN(C)C)CC1 [compound 113]	56.6	24.0	45.6	1360
C=CC(=O)Nc1cc(Nc2nccc(-c3ccc4c(cnn4C)c3)n2)c(OC(F)F)cc1N1CCN(CCN(C)C)CC1 [compound 114]	31.5	46.9	32.7	1480
C=CC(=O)Nc1cc(Nc2cc(-c3ccc4c(cnn4C)c3)ncn2)c(OCC)cc1N1CCN(CCN(C)C)CC1 [compound 117]	11.3	60.1	11.2	679
C=CC(=O)Nc1cc(Nc2cc(-c3ccc4c(cnn4CC)c3)ncn2)c(OC)cc1N(C)CCN1CCN(C)CC1 [compound 118]	19.9	53.2	23.6	1060
C=CC(=O)Nc1cc(Nc2cc(-c3ccc4c(cnn4C)c3)ncn2)c(OCC)cc1N(C)CCN1CCN(C)CC1 [compound 119]	23.1	54.0	17.8	1250
C=CC(=O)Nc1cc(Nc2cc(-c3ccc4c(cnn4C)c3)ncn2)c(OC(F)F)cc1N(C)CCNC(C)(C)C [compound 120]	8.2	73.0	6.7	598
C=CC(=O)Nc1cc(Nc2cc(-c3ccc4c(cnn4C)c3)ncn2)c(OCC)cc1N(C)CCNC(C)(C)C [compound 121]	40.2	57.6	31.1	2310
